Measurements as given in ChEMBL document CHEMBL1201862, “PubChem BioAssay data set” (2004).
Active and inactive are the calls of the source.

Assays:
INS1 = assay: inhibitors of cytokine-induced nitrite release, dose response, cell-based, Griess absorbance, INS-1E, dry powder, set 2 (AID 488868); type: functional; conditions: Rattus norvegicus
Erythrocyte = assay: FACS-based assay to assess parasite growth inhibition 96 hr Measured in Cell-Based System Using Flow Cytometry - 2126-05_Inhibitor_Dose_DryPowder_Activity. [Related pubchem assays (depositor defined):AID488774]; type: functional; conditions: Homo sapiens
[1] = ADAM10 inhibitors, peptide cleavage, dose response, biochemical, QFRET (AID 743254);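 further: ADAM10 enzyme with the DM2 quenched FRET peptide as substrate; EDANS fluorescence gain as the protease cuts the substrate; inhibitor potency against ADAM10 proteolytic activity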
[2] = biological target: Disintegrin and metalloproteinase domain-containing protein 17 (Homo sapiens, UniProt P78536); assay: ADAM17 protease inhibitors, dose response, counter-screen for ADAM10 exosite inhibitor project, biochemical, quenched FRET substrate (AID 743253)
[3] = FACS-based assay to assess parasite growth inhibition 48 hr Measured in Cell-Based System Using Flow Cytometry - 2126-03_Inhibitor_Dose_DryPowder_Activity. [Related pubchem assays (depositor defined):AID488774]; type: functional; conditions: Homo sapiens
[4] = A cell-based HTS for delayed death inhibitors of the malarial parasite plastid Measured in Microorganism System Using Plate Reader - 2126-02_Inhibitor_Dose_DryPowder_Activity.; type: functional, organism-based
[5] = A cell-based HTS for delayed death inhibitors of the malarial parasite plastid Measured in Microorganism System Using Plate Reader - 2126-01_Inhibitor_Dose_DryPowder_Activity.; type: functional, organism-based
[6] = biological target: T1, Sentrin-specific protease 7 (Homo sapiens, UniProt Q9BQF6); assay: SENP7 protease inhibitors, SAR follow-up, biochemical, luminescence, set 2 (AID 588600); type: functional
T1 sequence (Q9BQF6 whole entry): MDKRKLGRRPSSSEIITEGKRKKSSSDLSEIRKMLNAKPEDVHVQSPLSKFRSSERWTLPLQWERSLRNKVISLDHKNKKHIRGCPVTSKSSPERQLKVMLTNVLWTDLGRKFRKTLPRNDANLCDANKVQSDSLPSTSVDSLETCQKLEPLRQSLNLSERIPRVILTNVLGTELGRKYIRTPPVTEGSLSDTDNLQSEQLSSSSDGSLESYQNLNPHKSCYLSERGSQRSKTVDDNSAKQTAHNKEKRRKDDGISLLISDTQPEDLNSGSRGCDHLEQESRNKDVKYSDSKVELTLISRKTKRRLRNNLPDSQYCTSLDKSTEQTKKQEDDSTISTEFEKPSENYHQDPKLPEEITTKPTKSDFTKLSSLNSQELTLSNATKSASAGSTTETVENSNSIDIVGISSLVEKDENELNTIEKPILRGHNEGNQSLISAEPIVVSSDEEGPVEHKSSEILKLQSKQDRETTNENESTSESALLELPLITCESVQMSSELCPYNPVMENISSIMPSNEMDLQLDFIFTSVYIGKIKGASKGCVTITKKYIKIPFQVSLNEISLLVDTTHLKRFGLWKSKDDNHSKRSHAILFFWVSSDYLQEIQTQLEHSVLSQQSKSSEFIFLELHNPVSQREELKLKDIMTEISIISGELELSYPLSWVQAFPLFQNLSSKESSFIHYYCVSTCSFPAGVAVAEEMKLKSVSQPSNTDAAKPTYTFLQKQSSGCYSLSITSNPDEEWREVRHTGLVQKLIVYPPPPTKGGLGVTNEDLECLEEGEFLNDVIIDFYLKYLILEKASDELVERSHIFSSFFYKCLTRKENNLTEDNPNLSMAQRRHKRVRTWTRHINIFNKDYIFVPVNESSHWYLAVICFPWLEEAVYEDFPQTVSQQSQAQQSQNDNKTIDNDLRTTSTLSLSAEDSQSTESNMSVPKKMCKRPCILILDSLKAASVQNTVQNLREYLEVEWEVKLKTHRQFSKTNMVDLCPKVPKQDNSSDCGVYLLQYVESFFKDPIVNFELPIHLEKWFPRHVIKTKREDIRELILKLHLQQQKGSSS

Caspase-3 [7] = biological target: T2, Caspase-3 (Homo sapiens, UniProt P42574); assay: caspase-3 inhibitors as off-family protease, SAR follow-up, selectivity assay for SENP protease inhibitor project, biochemical, luminescence, set 2 (AID 588599); type: functional
T2 sequence (P42574 whole entry): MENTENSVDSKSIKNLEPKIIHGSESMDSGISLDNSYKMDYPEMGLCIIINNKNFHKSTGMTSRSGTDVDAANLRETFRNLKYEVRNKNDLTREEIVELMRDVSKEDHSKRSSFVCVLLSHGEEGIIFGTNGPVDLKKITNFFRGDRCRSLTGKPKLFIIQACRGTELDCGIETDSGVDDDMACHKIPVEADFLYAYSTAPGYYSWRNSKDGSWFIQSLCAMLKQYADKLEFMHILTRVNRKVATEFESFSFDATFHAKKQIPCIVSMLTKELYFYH

[8] = biological target: T3, Sentrin-specific protease 8 (Homo sapiens, UniProt Q96LD8); assay: SENP8 protease inhibitors, SAR follow-up, biochemical, luminescence (AID 504501); type: functional
T3 sequence (Q96LD8 whole entry): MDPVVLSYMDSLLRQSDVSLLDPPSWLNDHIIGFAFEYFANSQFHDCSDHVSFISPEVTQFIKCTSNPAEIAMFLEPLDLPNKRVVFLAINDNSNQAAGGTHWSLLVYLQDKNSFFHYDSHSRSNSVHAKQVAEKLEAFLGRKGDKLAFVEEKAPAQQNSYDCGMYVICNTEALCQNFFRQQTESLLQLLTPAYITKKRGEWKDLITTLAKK

[9] = biological target: T4, Sentrin-specific protease 6 (Homo sapiens, UniProt Q9GZR1); assay: SENP6 protease inhibitors, SAR follow-up, biochemical, luminescence, set 2 (AID 588598); type: functional
T4 sequence (Q9GZR1 whole entry): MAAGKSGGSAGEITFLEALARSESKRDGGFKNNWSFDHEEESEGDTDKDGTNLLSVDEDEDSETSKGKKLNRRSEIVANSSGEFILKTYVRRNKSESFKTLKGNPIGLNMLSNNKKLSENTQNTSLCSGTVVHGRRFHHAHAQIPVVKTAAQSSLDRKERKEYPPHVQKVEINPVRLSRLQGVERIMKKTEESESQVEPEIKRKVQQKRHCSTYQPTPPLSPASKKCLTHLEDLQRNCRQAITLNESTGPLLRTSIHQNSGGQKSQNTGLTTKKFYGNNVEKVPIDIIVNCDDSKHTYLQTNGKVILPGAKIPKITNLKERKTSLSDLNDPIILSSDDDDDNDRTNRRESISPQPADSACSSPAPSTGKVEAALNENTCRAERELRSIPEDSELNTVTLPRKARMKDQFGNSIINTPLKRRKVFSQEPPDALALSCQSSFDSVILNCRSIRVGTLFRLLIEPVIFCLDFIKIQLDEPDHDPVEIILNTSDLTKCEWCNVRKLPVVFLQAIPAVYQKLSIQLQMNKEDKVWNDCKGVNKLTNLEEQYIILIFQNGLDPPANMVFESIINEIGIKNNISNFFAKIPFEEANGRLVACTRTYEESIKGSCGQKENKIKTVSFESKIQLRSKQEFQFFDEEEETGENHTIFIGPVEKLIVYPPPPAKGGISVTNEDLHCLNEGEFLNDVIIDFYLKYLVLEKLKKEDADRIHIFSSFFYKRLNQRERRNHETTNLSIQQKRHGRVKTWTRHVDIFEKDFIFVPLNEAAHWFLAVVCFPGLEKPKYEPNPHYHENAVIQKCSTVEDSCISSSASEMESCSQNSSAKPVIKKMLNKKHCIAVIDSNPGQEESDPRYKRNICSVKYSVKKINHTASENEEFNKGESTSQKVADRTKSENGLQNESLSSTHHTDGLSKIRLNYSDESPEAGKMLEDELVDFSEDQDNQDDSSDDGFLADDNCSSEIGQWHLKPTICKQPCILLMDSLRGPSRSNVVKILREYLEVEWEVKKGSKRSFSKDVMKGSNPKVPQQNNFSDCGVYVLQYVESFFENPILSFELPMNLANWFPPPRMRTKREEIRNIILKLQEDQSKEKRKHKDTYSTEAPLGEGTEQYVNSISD

[10] = biological target: T4, Sentrin-specific protease 6; assay: SAR Analysis of small molecule inhibitors of Sentrin-specific protease 6 (SENP6) using a Luminescent assay. [Related pubchem assays (depositor defined):AID2582, AID2599]; type: functional
Caspase-3 [11] = biological target: T2, Caspase-3; assay: SAR Analysis of small molecule inhibitors of Sentrin-specific proteases (SENPs) using a Caspase-3 Selectivity assay. [Related pubchem assays (depositor defined):AID2540, AID2599, AID434973, AID489001]; type: functional
[12] = biological target: T1, Sentrin-specific protease 7; assay: SENP7 protease inhibitors, SAR follow-up, biochemical, luminescence (AID 504497); type: functional
[13] = biological target: T3, Sentrin-specific protease 8; assay: SENP8 protease inhibitors, SAR follow-up, biochemical, luminescence, set 2 (AID 588601); type: functional
[14] = biological target: T5, DNA repair protein RAD52 homolog (Homo sapiens, UniProt P43351); type: functional, biochemical
T5 sequence (P43351 whole entry): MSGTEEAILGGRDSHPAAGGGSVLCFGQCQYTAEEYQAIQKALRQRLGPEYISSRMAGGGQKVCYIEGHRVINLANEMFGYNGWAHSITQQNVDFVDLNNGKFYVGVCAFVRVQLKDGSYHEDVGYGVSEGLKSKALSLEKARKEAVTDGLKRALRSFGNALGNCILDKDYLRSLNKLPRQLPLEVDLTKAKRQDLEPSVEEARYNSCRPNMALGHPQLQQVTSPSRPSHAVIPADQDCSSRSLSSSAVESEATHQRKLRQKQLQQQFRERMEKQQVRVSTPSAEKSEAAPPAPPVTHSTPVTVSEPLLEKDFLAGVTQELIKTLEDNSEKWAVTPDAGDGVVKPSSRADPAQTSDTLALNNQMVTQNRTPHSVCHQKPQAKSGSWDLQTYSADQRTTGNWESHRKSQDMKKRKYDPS

HEK293 [15] = assay: optical interference in Abeta FP readout, dose response, artefact control for IDE activator project, biochemical, fluorescence polarization (AID 588442); type: functional, cell-based; conditions: Homo sapiens
HEK293 [16] = assay: HEK cell cytotoxicity by LDH release, dose response, cytotoxicity control for IDE activator project, fluorescence, HEK cells (AID 588440); type: functional, cell-based; conditions: Homo sapiens;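 further: cytotoxicity by LDH release measuring loss of membrane integrity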
Insulin-degrading enzyme [17] = biological target: T6, Insulin-degrading enzyme (Homo sapiens, UniProt P14735); assay: activators of recombinant IDE enzyme, dose response, counter-screen for IDE activator project, biochemical, fluorescence polarization (AID 588681)
T6 sequence (P14735 whole entry): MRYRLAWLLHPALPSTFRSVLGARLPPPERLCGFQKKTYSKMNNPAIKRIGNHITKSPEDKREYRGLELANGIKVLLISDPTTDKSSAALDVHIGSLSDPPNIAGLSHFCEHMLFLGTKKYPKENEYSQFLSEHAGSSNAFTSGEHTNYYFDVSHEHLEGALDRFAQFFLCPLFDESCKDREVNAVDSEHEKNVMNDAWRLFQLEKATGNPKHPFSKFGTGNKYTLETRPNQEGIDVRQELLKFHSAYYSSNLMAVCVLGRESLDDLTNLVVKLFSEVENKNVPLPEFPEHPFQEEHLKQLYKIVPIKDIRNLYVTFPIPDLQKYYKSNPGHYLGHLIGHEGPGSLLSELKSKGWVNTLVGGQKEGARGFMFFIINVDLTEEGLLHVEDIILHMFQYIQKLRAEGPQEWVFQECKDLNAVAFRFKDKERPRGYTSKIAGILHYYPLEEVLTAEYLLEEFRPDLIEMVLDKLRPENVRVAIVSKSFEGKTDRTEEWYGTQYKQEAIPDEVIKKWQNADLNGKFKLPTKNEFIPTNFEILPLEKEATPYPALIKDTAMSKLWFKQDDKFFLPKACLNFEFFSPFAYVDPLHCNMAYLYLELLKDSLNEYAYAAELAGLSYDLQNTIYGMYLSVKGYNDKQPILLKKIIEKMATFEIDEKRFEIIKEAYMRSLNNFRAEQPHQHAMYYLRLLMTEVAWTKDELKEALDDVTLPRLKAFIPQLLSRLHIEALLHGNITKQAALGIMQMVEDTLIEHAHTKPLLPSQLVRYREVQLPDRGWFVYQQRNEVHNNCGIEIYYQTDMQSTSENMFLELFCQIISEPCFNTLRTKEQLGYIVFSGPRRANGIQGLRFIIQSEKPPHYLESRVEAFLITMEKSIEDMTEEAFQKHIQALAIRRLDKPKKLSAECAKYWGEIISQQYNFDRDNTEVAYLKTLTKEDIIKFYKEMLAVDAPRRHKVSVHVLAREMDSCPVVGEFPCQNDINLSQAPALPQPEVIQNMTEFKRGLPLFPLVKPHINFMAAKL

Insulin-degrading enzyme [18] = biological target: T6, Insulin-degrading enzyme; assay: activators of endogenous IDE in HEK cells, dose response, cell-based, fluorescence polarization (AID 588439); type: functional

Sequence of Disintegrin and metalloproteinase domain-containing protein 17 (P78536 whole entry, the tested form may be a part): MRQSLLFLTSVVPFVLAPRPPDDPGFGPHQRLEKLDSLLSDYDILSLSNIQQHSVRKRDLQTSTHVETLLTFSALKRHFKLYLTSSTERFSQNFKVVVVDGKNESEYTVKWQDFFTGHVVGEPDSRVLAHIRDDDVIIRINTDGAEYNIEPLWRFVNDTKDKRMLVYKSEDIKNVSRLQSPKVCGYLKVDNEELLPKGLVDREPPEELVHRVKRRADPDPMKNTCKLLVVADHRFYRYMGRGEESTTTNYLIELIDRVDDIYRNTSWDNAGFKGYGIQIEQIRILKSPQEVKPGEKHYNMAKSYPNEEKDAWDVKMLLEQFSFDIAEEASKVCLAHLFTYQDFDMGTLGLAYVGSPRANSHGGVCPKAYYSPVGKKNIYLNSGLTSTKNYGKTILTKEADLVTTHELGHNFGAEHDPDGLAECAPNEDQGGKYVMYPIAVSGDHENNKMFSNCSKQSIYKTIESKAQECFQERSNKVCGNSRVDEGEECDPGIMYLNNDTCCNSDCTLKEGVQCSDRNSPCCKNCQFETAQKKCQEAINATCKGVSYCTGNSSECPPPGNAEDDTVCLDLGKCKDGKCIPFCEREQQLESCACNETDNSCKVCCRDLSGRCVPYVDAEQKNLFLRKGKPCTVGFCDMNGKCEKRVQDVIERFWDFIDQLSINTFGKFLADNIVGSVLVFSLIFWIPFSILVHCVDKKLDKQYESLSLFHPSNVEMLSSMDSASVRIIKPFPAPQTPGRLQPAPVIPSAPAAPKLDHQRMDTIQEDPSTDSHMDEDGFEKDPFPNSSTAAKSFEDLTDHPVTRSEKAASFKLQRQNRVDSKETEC

COc1ccc(S(=O)(=O)N(C)C[C@@H]2Oc3ccc(NC(=O)Nc4cccc5ccccc45)cc3C(=O)N([C@@H](C)CO)C[C@H]2C)cc1
active: AC50 (INS1) 43800 nM

C[C@@H]1CN([C@@H](C)COC(=O)C(C)(C)C)C(=O)c2cc(NC(=O)Nc3ccccc3)ccc2O[C@@H](C)CCCCO[C@H]1CN(C)S(=O)(=O)c1ccc(F)cc1
inactive: IC50 [1] > 69500 nM | IC50 [2] > 69500 nM
active: AC50 (Erythrocyte) 5 nM | AC50 [3] 4.25 nM | AC50 [4] 8.77 nM | AC50 [5] 5.39 nM

O=C(Nc1nc2ccccc2s1)c1sccc1Cl
active: IC50 [6] 1210 nM | IC50 (Caspase-3 [7]) 954 nM | IC50 [8] 710 nM | IC50 [9] 1190 nM | IC50 [10] 750 nM | IC50 (Caspase-3 [11]) 540 nM | IC50 [12] 890 nM | IC50 [13] 1220 nM

O=c1c2c(-c3ccccc3)csc2nc2c3ccccc3c(NCCN3CCOCC3)nn12
inactive: EC50 (HEK293 [15]) > 55900 nM | IC50 (HEK293 [16]) 10600 nM | EC50 (Insulin-degrading enzyme [17]) 25200 nM | EC50 (Insulin-degrading enzyme [18]) > 54700 nM
active: AC50 [14] 1580 nM
